# Experimental data published in US20180319810A1, “SUBSTITUTED BRIDGED UREA ANALOGS AS SIRTUIN MODULATORS” (GlaxoSmithKline Intellectual Property (No.2) Limited, priority 2014, published 2018).
# Molecular target: T1, SIRT1 (Homo sapiens, UniProt Q96EB6)
# T1 sequence (Q96EB6 1-747): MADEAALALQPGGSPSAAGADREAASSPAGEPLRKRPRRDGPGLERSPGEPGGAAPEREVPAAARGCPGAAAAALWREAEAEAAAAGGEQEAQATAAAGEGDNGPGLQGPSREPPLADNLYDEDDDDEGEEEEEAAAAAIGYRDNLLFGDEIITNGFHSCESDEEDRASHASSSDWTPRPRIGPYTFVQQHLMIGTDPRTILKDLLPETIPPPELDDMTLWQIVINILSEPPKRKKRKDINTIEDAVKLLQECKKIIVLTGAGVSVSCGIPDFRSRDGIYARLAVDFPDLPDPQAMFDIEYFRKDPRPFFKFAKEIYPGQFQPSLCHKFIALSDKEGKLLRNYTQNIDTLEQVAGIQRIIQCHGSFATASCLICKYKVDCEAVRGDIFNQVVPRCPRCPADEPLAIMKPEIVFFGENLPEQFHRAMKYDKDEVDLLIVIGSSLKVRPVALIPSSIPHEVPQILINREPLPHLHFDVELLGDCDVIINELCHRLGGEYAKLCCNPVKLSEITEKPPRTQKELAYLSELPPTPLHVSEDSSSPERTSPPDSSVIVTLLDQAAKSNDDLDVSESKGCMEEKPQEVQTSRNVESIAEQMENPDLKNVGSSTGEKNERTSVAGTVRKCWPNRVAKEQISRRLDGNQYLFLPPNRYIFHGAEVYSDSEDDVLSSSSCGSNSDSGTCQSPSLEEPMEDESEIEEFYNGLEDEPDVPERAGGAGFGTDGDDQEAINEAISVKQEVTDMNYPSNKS
# Test: Trp mass spectrometry assay of SIRT1 activation
# Type: biochemical
# Settings: Trp peptide Ac-R-H-K-K(Ac)-W-NH2 0.5 μM, 120 μM βNAD+, 10 nM SIRT1, 25 min, 25° C.
# From the text: Mass spectrometry based assays were used to identify modulators of SIRT1 activity. […] The peptide was labeled with the fluorophore 5TMR (excitation 540 nm/emission 580 nm) at the C-terminus. The sequence of the peptide substrate was based on p53 with several modifications. In addition, the methionine residue naturally present in the sequence was replaced with the norleucine because the methionine may be susceptible to oxidation during synthesis and purification.
# The Trp mass spectrometry assay was conducted as follows. […] The SIRT1 protein was obtained by cloning the SirT1 gene into a T7-promoter containing vector, which was then expressed in BL21(DE3) bacterial cells and purified as described in further detail below. Test compound was added at varying concentrations to this reaction mixture and the resulting reactions were monitored. After the 25 minute incubation with SIRT1, 10 μL of 10% formic acid was added to stop the reaction. The resulting reactions were sealed and frozen for later mass spec analysis. The relative SIRT1 activity was then determined by measuring the amount of O-acetyl-ADP-ribose (OAADPR) formed (or, alternatively, the amount of deacetylated Trp peptide generated) by the NAD-dependent sirtuin deacetylation reaction in the presence of varying concentrations of the test compound versus control reactions lacking the test compound.
# The degree to which the test agent activated deacetylation by SIRT1 was expressed as EC1.5 (i.e., the concentration of compound required to increase SIRT1 activity by 50% over the control lacking test compound), and Percent Maximum Activation (i.e., the maximum activity relative to control (100%) obtained for the test compound).
# This time point was the same as that used for test compounds and, within the linear range, the endpoint represents a change in velocity.
# For the above assay, SIRT1 protein was expressed and purified as follows. The SirT1 gene was cloned into a T7-promoter containing vector and transformed into BL21(DE3). The protein was expressed by induction with 1 mM IPTG as an N-terminal His-tag fusion protein at 18° C. overnight and harvested at 30,000×g. Cells were lysed with lysozyme in lysis buffer (50 mM Tris-HCl, 2 mM Tris[2-carboxyethyl]phosphine (TCEP), 10 μM ZnCl2, 200 mM NaCl) and further treated with sonication for 10 min for complete lysis. The protein was purified over a Ni-NTA column (Amersham) and fractions containing pure protein were pooled, concentrated and run over a sizing column (Sephadex S200 26/60 global). The peak containing soluble protein was collected and run on an Ion-exchange column (MonoQ). Gradient elution (200 mM-500 mM NaCl) yielded pure protein. This protein was concentrated and dialyzed against dialysis buffer (20 mM Tris-HCl, 2 mM TCEP) overnight. The protein was aliquoted and frozen at −80° C. until further use.
# “NT” means not tested; “ND” means not determinable.
Structure (SMILES),"TRP Activity (EC1.5, concentration of compound required to increase SIRT1 activity by 50% over control)",TRP MAX RESP (percent maximum fold activation relative to control)
"O=C(Nc1cc(OC[C@@H](O)CO)ncn1)N1c2nc(-c3cccc(C(F)(F)F)c3)ncc2N2CC[C@H]1C2 [Example 29, (8S)—N-(6-((S)-2,3-dihydroxypropoxy)pyrimidin-4-yl)-2-(3-(trifluoromethyl)phenyl)-7,8-dihydro-5,8-methanopyrimido[4,5-b][1,4]diazepine-9(6H)-carboxamide]",B (EC1.5 1-25 μM),A (Fold activation ≥150%)
"CC(C)NC(=O)N1c2nc(-c3cccc(C(F)(F)F)c3)ncc2N2CC[C@H]1C2 [Example 30, (8S)—N-isopropyl-2-(3-(trifluoromethyl)phenyl)-7,8-dihydro-5,8-methanopyrimido[4,5-b][1,4]diazepine-9(6H)-carboxamide]",B (EC1.5 1-25 μM),A (Fold activation ≥150%)
"O=C(Nc1cccc(OC[C@@H](O)CO)n1)N1c2nc(-c3cccc(C(F)(F)F)c3)ncc2N2CC[C@H]1C2 [Example 31, (8S)—N-(6-((S)-2,3-dihydroxypropoxy)pyridin-2-yl)-2-(3-(trifluoromethyl)phenyl)-7,8-dihydro-5,8-methanopyrimido[4,5-b][1,4]diazepine-9(6H)-carboxamide]",A (EC1.5<1 μM),A (Fold activation ≥150%)
"O=C(Nc1ccnc(OC[C@@H](O)CO)c1)N1c2nc(-c3cccc(C(F)(F)F)c3)ncc2N2CC[C@H]1C2 [Example 32, (8S)—N-(2-((S)-2,3-dihydroxypropoxy)pyridin-4-yl)-2-(3-(trifluoromethyl)phenyl)-7,8-dihydro-5,8-methanopyrimido[4,5-b][1,4]diazepine-9(6H)-carboxamide]",A (EC1.5<1 μM),A (Fold activation ≥150%)
"O=C(Nc1cc(OC[C@H](O)CO)ccn1)N1c2nc(-c3cccc(C(F)(F)F)c3)ncc2N2CC[C@H]1C2 [Example 33, (8S)—N-(4-((R)-2,3-dihydroxypropoxy)pyridin-2-yl)-2-(3-(trifluoromethyl)phenyl)-7,8-dihydro-5,8-methanopyrimido[4,5-b][1,4]diazepine-9(6H)-carboxamide]",B (EC1.5 1-25 μM),A (Fold activation ≥150%)
"Cl.O=C(Nc1ccnc(OC[C@H](O)CO)c1)N1c2nc(-c3cccc(C(F)(F)F)c3)ncc2N2CC[C@H]1C2 [Example 34, (8S)—N-(2-((R)-2,3-dihydroxypropoxy)pyridin-4-yl)-2-(3-(trifluoromethyl)phenyl)-7,8-dihydro-5,8-methanopyrimido[4,5-b][1,4]diazepine-9(6H)-carboxamide hydrochloride]",A (EC1.5<1 μM),A (Fold activation ≥150%)
"O=C(Nc1cncc(OC[C@H](O)CO)c1)N1c2nc(-c3cccc(C(F)(F)F)c3)ncc2N2CC[C@H]1C2 [Example 35, (8S)—N-(5-((R)-2,3-dihydroxypropoxy)pyridin-3-yl)-2-(3-(trifluoromethyl)phenyl)-7,8-dihydro-5,8-methanopyrimido[4,5-b][1,4]diazepine-9(6H)-carboxamide]",B (EC1.5 1-25 μM),A (Fold activation ≥150%)
"O=C(Nc1cc(OC[C@@H](O)CO)ccn1)N1c2nc(-c3cccc(C(F)(F)F)c3)ncc2N2CC[C@H]1C2 [Example 36, (8S)—N-(4-((S)-2,3-dihydroxypropoxy)pyridin-2-yl)-2-(3-(trifluoromethyl)phenyl)-7,8-dihydro-5,8-methanopyrimido[4,5-b][1,4]diazepine-9(6H)-carboxamide]",B (EC1.5 1-25 μM),A (Fold activation ≥150%)
"O=C(Nc1cncc(OC[C@H](O)CO)n1)N1c2nc(-c3cccc(C(F)(F)F)c3)ncc2N2CC[C@H]1C2 [Example 37, (8S)—N-(6-((R)-2,3-dihydroxypropoxy)pyrazin-2-yl)-2-(3-(trifluoromethyl)phenyl)-7,8-dihydro-5,8-methanopyrimido[4,5-b][1,4]diazepine-9(6H)-carboxamide]",B (EC1.5 1-25 μM),A (Fold activation ≥150%)
"O=C(Nc1ccc(OC[C@@H](O)CO)nc1)N1c2nc(-c3cccc(C(F)(F)F)c3)ncc2N2CC[C@H]1C2 [Example 38, (8S)—N-(6-((S)-2,3-dihydroxypropoxy)pyridin-3-yl)-2-(3-(trifluoromethyl)phenyl)-7,8-dihydro-5,8-methanopyrimido[4,5-b][1,4]diazepine-9(6H)-carboxamide]",A (EC1.5<1 μM),A (Fold activation ≥150%)
"O=C(Nc1ccc(OC[C@H](O)CO)nc1)N1c2nc(-c3cccc(C(F)(F)F)c3)ncc2N2CC[C@H]1C2 [Example 39, (8S)—N-(6-((R)-2,3-dihydroxypropoxy)pyridin-3-yl)-2-(3-(trifluoromethyl)phenyl)-7,8-dihydro-5,8-methanopyrimido[4,5-b][1,4]diazepine-9(6H)-carboxamide]",A (EC1.5<1 μM),A (Fold activation ≥150%)
"O=C(Nc1ccc(OC[C@H](O)CO)cn1)N1c2nc(-c3cccc(C(F)(F)F)c3)ncc2N2CC[C@H]1C2 [Example 40, (8S)—N-(5-((R)-2,3-dihydroxypropoxy)pyridin-2-yl)-2-(3-(trifluoromethyl)phenyl)-7,8-dihydro-5,8-methanopyrimido[4,5-b][1,4]diazepine-9(6H)-carboxamide]",A (EC1.5<1 μM),A (Fold activation ≥150%)
"O=C(Nc1ncc(OC[C@H](O)CO)cn1)N1c2nc(-c3cccc(C(F)(F)F)c3)ncc2N2CC[C@H]1C2 [Example 41, (8S)—N-(5-((R)-2,3-dihydroxypropoxy)pyrimidin-2-yl)-2-(3-(trifluoromethyl)phenyl)-7,8-dihydro-5,8-methanopyrimido[4,5-b][1,4]diazepine-9(6H)-carboxamide]",B (EC1.5 1-25 μM),A (Fold activation ≥150%)
